The values below come from PubChem BioAssay AID1057 (University of Pittsburgh Molecular Library Screening Center, 2008).

Molecules are shown by their SMILES. Calls of active or inactive are those of the source. The rule behind the calls is not given here. Bounds are passed on as bounds.

The assay deals with Serine/threonine-protein kinase PLK1 (Homo sapiens) (UniProt P53350). Nature of the assay: PLK1 polo-box domain peptide-binding inhibitors, SAR follow-up, biochemical, fluorescence polarization, synthesized analogs, concentration response (AID 1057). Particulars: Plk1 PBD fluorescence polarization peptide binding. In general terms: In fluorescence polarisation assays a small probe gives low polarisation when free and higher when bound to something large.
Serine/threonine-protein kinase PLK1 (Homo sapiens), sequence (P53350 whole entry, looked up, the tested form may be a part): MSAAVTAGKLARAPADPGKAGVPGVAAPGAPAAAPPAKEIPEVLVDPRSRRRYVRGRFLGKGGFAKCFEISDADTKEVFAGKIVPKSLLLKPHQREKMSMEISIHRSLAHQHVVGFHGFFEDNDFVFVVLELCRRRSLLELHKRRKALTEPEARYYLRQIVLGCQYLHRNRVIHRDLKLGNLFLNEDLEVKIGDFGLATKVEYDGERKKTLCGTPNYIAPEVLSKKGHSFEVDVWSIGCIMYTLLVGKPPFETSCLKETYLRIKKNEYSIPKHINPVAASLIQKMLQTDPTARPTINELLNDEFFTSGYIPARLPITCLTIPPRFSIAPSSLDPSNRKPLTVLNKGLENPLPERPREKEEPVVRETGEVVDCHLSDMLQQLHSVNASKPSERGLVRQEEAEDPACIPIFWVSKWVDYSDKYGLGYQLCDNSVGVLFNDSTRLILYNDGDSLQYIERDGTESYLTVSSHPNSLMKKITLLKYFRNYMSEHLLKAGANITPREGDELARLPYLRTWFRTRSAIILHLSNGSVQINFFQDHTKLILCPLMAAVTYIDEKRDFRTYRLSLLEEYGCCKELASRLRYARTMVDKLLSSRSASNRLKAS
`C/C(=N\NC(=O)c1ccncc1)c1c(O)[nH]c(=O)[nH]c1=O`: the IC50 was > 50 µM (inactive).

As for `Cc1cccc(N/N=C/c2c(O)[nH]c(=S)[nH]c2=O)c1`, the IC50 was > 50 µM (inactive).

With `CCOC(=O)CCCCCNC(=O)c1c(O)[nH]c(=O)[nH]c1=O`, the IC50 was > 50 µM (inactive).

In general, IC50 refers to the point on the concentration scale where inhibition reaches its midpoint.
